Measurements reported in patent publication US10551384B2, “MTOR kinase mutations and methods of use thereof” (RUTGERS, THE STATE UNIVERSITY OF NEW JERSEY, priority 2016, dated 2020).

Assays:
TOR2-mTOR L2185C mutant = experiment: Yeast spotting assay for drug resistance, TOR2-mTOR L2185C; format: cell-based, S. cerevisiae; conditions: 37° C., amphotericin B present (except OSI-027)
Text: (§1) FIGS. 4A-C. […] (FIG. 4A) Scheme of a yeast-based screen for drug-resistant mutations in mTOR kinase domain. mTOR kinase domain is amplified by error-prone PCR to generate randomized mutations, which is then recombined in frame into the TOR2-mTOR plasmid by gap-repair in tort-dg cells, and is selected on SC-leucine minus plates. Replica plating is then made onto SC-leucine plates containing DMSO or mTOR kinase inhibitor for selection of drug resistant clones. (FIG. 4B) tor2-dg cells expressing WT or mutant TOR2-mTOR were serially diluted by 10-fold and assayed for sensitivity to different mTOR kinase inhibitors in the presence of amphotericin B. Vector and TOR2 were used as controls. Drug resistant assay was performed at 37° C. in the presence of amphotericin B (except OSI-027). (FIG. 4C) Systematic mutational analysis of L2185 on drug resistance. tort-dg cells expressing WT or mutant TOR2-mTOR carrying all possible mutations at L2185 were serially diluted by 10-fold and tested for sensitivity to different mTOR kinase inhibitors at 37° C.
(§2) To enhance yeast cell permeability, log phase W303 tort-dg cells were spread evenly on SD-Leu agarose plates. After drying, small sterile filter discs were placed on the surface and 5 μl of indicated mTOR inhibitors or DMSO were applied to each disc with or without adding 5 μl of amphotericin B (10 μM), miconazole (50 μM) or caspofungin (50 μM). Plates were incubated at 37° C. for 3 day. Drug resistance profiles of TOR2-mTOR mutant cells were determined by the spotting assay. For this assay, 10-fold serial dilutions of cells were spotted on SD-leu plates in the presence of indicated mTOR inhibitors with or without amphotericin B (200 nM) and incubated at 37° C. for 3 day.

[1] = system: Wild type (WT) yeast cells; experiment: Disc halo assay of wild type yeast sensitivity to mTOR kinase inhibitors; format: cell-based, S. cerevisiae; conditions: WT yeast on YPD plates; 5 μl on filter disc, BEZ235 5 μM, other mTOR inhibitors 10 μM; 30° C., 3 day
Protocol: For the halo assay, log phase W303 wild type or tor2-dg cells were spread evenly on YPD agarose plates. […] Plates were incubated at 30° C. (wild type) or 37° C. (tor2-dg) for 3 day.

[2] = system: SW480 colorectal cancer cells carrying L2185A mutant mTOR alleles; experiment: SRB growth assay of SW480 cells carrying L2185A mutant mTOR; format: cell-based, human; conditions: various concentrations, 2 day
Protocol: (FIG. 5A) SW480 cells carrying homozygous WT mTOR or L2185A mutant alleles were treated with various concentrations of AZD8055, INK-128, OSI-027 and PP242 for 2 day. Growth of SW480 cells was measured by SRB assay. Data represent means±SD in three independent experiments. (FIG. 5B) SW480 cells carrying homozygous WT and L2185A mutant mTOR allele were treated with a single dose of AZD8055 (100 nM), INK-128 (100 nM), OSI-027 (6,000 nM), and PP242 (2,000 nM) for different times. Cell growth was measured by SRB assay. The drug carrier DMSO was used as a control. Data represent means±SD in three independent experiments. (FIG. 5C) SW480 cells carrying homozygous WT and L2185A mutant mTOR were treated with various concentrations of INK-128, OSI-027, AZD8055 and PP242 for 1 hr. The effect on the level of P-S6K, S6K, P-4E-BP1, 4EB-P1, P-AKT and AKT was analyzed by immunoblot. […] The growth of SW480 cells was measured by SRB assay. Data represent means±SD in three independent experiments.
Cancer cell lines were maintained in DMEM or RPMI 1640, supplemented with 10% fetal bovine serum (Invitrogen) and 1% penicillin/streptomycin (Invitrogen). CRISPR/cas9 technology was used to engineer mutant mTOR allele in SW480 colorectal and H460 lung cancer cells. Briefly, The target sequence for mTOR, […] (SEQ ID NO: 3 was designed through the online tool at crispr.mit.edu, and cloned into pSPCas9(BB)-2A-GFP vector (PX458 in Addgene). Genomic mTOR mutation was engineered using a protocol as described (Ran, et al. (2013). Nature protocols 8, 2281-2308) and was confirmed by targeted sequencing.
Antibodies against tubulin, S6K, phospho-S6K (Thr389), 4E-BP1, phospho-4E-BP1 (Thr37/46), Akt, phospho-Akt (Thr308), and phospho-Akt (Ser473) were purchased from Cell Signaling Technology. […] For drug sensitivity test, cancer cells were seeded in 96-well plates at a density of 2,000 cells per well. 24 hours later, different concentrations of mTOR inhibitors were added in quadruplicate. Cell growth was measured by the sulforhodamine B (SRB) assay as previously described (Vichai, V., and Kirtikara, K. (2006). Nature protocols 1, 1112-1116).

[3] = system: H460 lung cancer cells carrying L2185A mutant mTOR alleles; experiment: SRB growth assay of H460 cells carrying L2185A mutant mTOR; format: cell-based, human; conditions: various concentrations, 2 days
Protocol: (FIG. 10A) Flag-mTOR(L2185A), when transiently expressed in HEK293T cells, confers drug resistance to mTOR kinase inhibitors. HEK293T cells transiently expressing WT and L2185A mutant Flag-mTOR were treated with various concentrations of INK-128, OSI-027 for 1 hr. The effect on the level of P-S6K, S6K, P-4E-BP1, 4EB-P1, P-AKT and AKT was analyzed by immunoblot. (FIG. 10B) Sequencing verification of genome-engineered SW480 and H460 cells carrying homozygous and heterozygous L2185A mutations in mTOR locus. (FIG. 10C) Independent clones of engineered SW480 cells confer similar drug resistance. Cells were treated with various concentrations of AZD8055 and INK-128 for 2 days. Cell growth was measured by SRB assay. Clones #1, 3 carry heterozygous L2185A mutation. Clones #2, 4 carry homozygous L2185A mutation. […] Cell growth was measured by SRB assay. […] Cell growth was measured by SRB assay. […] The effect on level of P-S6K, P-4E-BP1 and P-AKT was analyzed by immunoblot. […] The growth of H460 cells was measured by SRB assay. […]
Antibodies against tubulin, S6K, phospho-S6K (Thr389), 4E-BP1, phospho-4E-BP1 (Thr37/46), Akt, phospho-Akt (Thr308), and phospho-Akt (Ser473) were purchased from Cell Signaling Technology. […] Cell growth was measured by the sulforhodamine B (SRB) assay as previously described (Vichai, V., and Kirtikara, K. (2006). Nature protocols 1, 1112-1116).

TOR2-mTOR L2185A mutant = experiment: Yeast spotting assay for drug resistance, TOR2-mTOR L2185A; format: cell-based, S. cerevisiae; conditions: 37° C., amphotericin B present (except OSI-027)
Text: as §1, §2

[4] = biological target: T1, tor2-dg cells expressing TOR2-mTOR fusion (UniProt P32600+P42345); format: cell-based, S. cerevisiae; conditions: 10-fold serial dilutions on plates containing drug
T1 construct: fused in frame with mTOR kinase domain (2140-2549 aa); yeast TOR2 N-terminus (1-2080 aa); expressed in transfected cells; host or cells: S. cerevisiae W303 tor2-dg, centromeric plasmid derived from pML40-TOR2
T1 sequence (P32600+P42345 fused with the stated changes): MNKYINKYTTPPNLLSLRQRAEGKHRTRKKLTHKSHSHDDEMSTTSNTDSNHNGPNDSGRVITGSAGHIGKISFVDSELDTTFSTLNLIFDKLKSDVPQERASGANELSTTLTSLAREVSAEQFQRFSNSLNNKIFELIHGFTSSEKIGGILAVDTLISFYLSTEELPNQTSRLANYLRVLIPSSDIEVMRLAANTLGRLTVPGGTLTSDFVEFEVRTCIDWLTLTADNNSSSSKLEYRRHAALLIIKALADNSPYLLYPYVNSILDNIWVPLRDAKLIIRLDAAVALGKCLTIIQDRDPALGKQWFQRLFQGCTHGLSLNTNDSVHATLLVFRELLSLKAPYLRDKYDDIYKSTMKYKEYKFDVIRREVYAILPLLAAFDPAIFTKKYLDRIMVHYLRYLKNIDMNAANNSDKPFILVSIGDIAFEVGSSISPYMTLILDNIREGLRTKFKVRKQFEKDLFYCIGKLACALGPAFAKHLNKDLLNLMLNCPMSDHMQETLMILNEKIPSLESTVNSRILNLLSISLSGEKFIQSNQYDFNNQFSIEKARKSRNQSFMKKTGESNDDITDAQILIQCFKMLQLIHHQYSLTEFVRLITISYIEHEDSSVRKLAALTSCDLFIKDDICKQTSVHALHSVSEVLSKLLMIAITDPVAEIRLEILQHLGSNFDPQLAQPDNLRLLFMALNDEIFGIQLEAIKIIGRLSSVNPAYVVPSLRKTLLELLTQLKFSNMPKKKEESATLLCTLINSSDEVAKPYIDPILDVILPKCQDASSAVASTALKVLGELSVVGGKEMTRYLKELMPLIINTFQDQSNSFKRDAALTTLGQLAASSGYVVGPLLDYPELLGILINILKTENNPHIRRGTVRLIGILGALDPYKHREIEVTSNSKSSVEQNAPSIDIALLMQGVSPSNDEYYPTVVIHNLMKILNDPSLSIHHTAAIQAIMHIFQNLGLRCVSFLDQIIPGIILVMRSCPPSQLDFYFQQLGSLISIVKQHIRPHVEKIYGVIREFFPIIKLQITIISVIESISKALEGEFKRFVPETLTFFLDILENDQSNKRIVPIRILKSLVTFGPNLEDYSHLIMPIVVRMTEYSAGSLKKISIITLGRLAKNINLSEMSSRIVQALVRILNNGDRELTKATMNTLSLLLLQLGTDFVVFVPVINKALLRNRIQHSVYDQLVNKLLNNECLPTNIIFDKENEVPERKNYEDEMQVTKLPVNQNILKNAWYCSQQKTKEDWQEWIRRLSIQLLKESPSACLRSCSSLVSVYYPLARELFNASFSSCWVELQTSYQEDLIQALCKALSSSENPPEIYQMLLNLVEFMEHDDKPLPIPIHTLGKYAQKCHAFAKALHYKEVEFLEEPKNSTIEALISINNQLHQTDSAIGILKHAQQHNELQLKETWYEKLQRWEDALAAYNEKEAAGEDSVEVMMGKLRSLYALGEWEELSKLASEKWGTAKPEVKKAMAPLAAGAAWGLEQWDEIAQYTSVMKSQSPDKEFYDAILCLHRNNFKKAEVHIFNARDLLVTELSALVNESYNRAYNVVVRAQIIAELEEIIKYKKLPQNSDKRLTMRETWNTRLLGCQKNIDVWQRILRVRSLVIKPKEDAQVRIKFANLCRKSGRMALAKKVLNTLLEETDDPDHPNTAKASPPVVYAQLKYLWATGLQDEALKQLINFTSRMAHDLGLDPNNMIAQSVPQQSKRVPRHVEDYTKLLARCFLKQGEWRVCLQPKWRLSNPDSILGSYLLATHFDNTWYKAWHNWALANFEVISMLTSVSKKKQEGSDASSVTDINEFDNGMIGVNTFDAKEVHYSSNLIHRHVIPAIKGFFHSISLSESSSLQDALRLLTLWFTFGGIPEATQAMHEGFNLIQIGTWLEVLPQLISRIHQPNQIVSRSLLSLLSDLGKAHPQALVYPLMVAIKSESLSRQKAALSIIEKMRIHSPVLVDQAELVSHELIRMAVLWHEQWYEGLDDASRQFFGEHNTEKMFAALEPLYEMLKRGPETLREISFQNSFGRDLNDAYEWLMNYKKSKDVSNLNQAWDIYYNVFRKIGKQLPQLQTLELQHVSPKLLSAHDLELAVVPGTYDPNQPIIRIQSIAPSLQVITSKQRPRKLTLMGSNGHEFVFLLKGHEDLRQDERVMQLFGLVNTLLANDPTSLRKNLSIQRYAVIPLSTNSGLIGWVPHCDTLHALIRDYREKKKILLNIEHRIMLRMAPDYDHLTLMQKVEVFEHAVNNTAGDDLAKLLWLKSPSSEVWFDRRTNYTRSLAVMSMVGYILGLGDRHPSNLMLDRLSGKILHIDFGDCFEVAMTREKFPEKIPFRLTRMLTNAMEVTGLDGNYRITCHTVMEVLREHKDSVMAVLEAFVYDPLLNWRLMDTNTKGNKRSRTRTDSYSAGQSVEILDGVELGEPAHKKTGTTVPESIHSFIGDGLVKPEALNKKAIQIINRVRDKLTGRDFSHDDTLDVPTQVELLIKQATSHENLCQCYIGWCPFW
T1 sequence (P41318 whole entry partner, the tested form may be a part): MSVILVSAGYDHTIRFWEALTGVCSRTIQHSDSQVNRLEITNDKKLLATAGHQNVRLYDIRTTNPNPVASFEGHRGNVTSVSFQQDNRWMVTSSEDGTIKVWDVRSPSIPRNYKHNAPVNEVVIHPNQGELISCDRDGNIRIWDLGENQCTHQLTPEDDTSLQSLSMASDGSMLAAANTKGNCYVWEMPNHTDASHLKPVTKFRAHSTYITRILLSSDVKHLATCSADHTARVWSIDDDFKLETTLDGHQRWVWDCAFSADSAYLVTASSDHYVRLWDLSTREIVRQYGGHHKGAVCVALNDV
Text: The TOR2-mTOR hybrid plasmid was constructed by replacing the C-terminal region of TOR2 of pML40-TOR2 (Alarcon, et al. (1996). Genes & development 10, 279-288) (encoding for 2080-2474 aa) in frame with a DNA fragment corresponding to C-terminal domain of mTOR (encoding for 2140-2549 aa). To construct mutant TOR2-mTOR plasmids, mTOR C-terminal region was amplified by PCR and co-transformed into yeast with XmaI-digested pML40-TOR2 plasmid that excised the TOR2 C-terminal region. The resultant TOR2-mTOR fusion plasmids are constructed in reading frame by gap-repair in yeast.

[5] = biological target: T2, tor2-dg cells expressing TOR2 (Saccharomyces cerevisiae, UniProt P32600); experiment: Yeast serial-dilution drug sensitivity assay, tor2-dg cells expressing TOR2; format: cell-based, S. cerevisiae; conditions: 10-fold serial dilutions on plates containing drug
T2 construct: expressed in transfected cells; host or cells: S. cerevisiae W303 tor2-dg, plasmid pML40-TOR2
Text: FIGS. 1A-E. Developing a yeast system to assay for mTOR kinase inhibition. (FIG. 1A) Wild type (WT) yeast cells were spread onto YPD plates and tested for sensitivity to structurally diverse mTOR kinase inhibitors by disc halo assay. Rapamycin was used as a positive control. (FIG. 1B) The N-terminus of TOR2 (1-2080 aa) was fused in frame with mTOR kinase domain (2140-2549 aa). The TOR2-mTOR fusion is expressed under the control of TOR2 promoter in a centromeric plasmid. (FIG. 1C) Yeast strain expressing WT TOR2 or TOR2-mTOR fusion was analyzed for expression by immunoblot with an antibody specific for mTOR kinase domain. PGK1 was used as a loading control and extracts from MCF7 breast cells were used as a positive control for mTOR. (FIG. 1D) TOR2-mTOR fusion was expressed in tort-dg and tested for its ability to complement TOR2 function by growth at permissive and restrictive temperatures.
To enhance yeast cell permeability, log phase W303 tort-dg cells were spread evenly on SD-Leu agarose plates. After drying, small sterile filter discs were placed on the surface and 5 μl of indicated mTOR inhibitors or DMSO were applied to each disc with or without adding 5 μl of amphotericin B (10 μM), miconazole (50 μM) or caspofungin (50 μM). Plates were incubated at 37° C. for 3 day. Drug resistance profiles of TOR2-mTOR mutant cells were determined by the spotting assay. […]

SMILES | drug resistance/sensitivity of TOR2-mTOR L2185C mutant yeast (TOR2-mTOR L2185C mutant) | inhibition of yeast growth (disc halo assay) [1] | drug resistance/sensitivity of cell growth, SW480 L2185A vs WT [2] | drug resistance/sensitivity of cell growth, H460 L2185A vs WT [3] | drug resistance/sensitivity of TOR2-mTOR L2185A mutant yeast (TOR2-mTOR L2185A mutant) | drug sensitivity of tor2-dg cells expressing TOR2-mTOR [4] | drug sensitivity (growth inhibition) of tor2-dg cells expressing TOR2 [5]
Nc1ccc(-c2ccc3ncc4ccc(=O)n(-c5cccc(C(F)(F)F)c5)c4c3c2)cn1 [Torin2] | remain sensitive | inhibit yeast growth | remains sensitive | remains sensitive | remain sensitive | – | –
Cn1c(=O)n(-c2ccc(C(C)(C)C#N)cc2)c2c3cc(-c4cnc5ccccc5c4)ccc3ncc21 [BEZ235] | – | – | remains sensitive | remains sensitive | – | highly sensitive | poorly inhibited
